The test system of assay [1] is dendritic cells derived from human monocytes. As to the kind of experiment: Stimulation of human cells in vitro: maturation markers by flow cytometry. Type of assay: cell-based. Conditions: 2 days culture; DPPC liposomes, R-848 2.96 μg/ml, ER804057 0.1 μg/ml; mean of 4 donors. The protocol:
(§1) The capacity of the compositions according to the invention to induce the maturation of dendritic cells derived from human monocytes in vitro is evaluated for 4 independent donors. The monocytes are obtained from peripheral blood mononuclear cells and are cultured for 5-6 days in the presence of IL4 and of GM-CSF. […] There are then carried out a phenotype analysis by flow cytometry, making it possible to measure the expression of the maturation markers CD25, CD80 and CD83, and an ELISA measurement of the cytokines (TNF-α, IL6 and IL12p70) secreted by these cells. The results indicated in the tables below represent the mean values calculated for the 4 donors: […]
(A flow cytometer gives signals particle by particle.)

In assay [2] the test system is BALB/c mice. Nature of the assay: Immunization test on mice: specific IgG1 and IgG2a by ELISA. In kind it is in vivo. Conditions: Tat vaccine compositions; level and dispersion of the results between mice. Here is the method:
5. Immunization Test on Mice.
There are available 4 groups of 6 female BALB/c mice 8 weeks old to which one of the compositions prepared in example 4 is injected subcutaneously at the rate of a dose of 200 μl per mouse; the injections are performed on D0 and at D21.
Blood samples are collected at the retro-orbital sinus at D14 for assessing the primary response and at D32 for the secondary response. The determination of the level of specific IgG1 and IgG2a is carried out by virtue of the standard ELISA tests.
The results obtained as regards the humoral responses are summarized in the table below and in FIGS. 1 to 4, where the IgG levels are expressed as arbitrary ELISA units (log10).
For each group of mice, the value indicated in the table is the mean geometric titer of the values obtained for each of the mice.
(ELISA stands for enzyme-linked immunosorbent assay.)

For assay [3], the system named is dendritic cells derived from human monocytes. Nature of the assay: Stimulation of human cells in vitro: ELISA of secreted cytokines. In kind it is cell-based. The following applies: 2 days culture; DPPC liposomes, R-848 2.96 μg/ml, ER804057 0.1 μg/ml; mean of 4 donors. Here is the method: as §1
Assay [4] deals with T1, Toll-like 8 receptor (Homo sapiens, UniProt Q9NR97).
T1 sequence (Q9NR97 27-1041): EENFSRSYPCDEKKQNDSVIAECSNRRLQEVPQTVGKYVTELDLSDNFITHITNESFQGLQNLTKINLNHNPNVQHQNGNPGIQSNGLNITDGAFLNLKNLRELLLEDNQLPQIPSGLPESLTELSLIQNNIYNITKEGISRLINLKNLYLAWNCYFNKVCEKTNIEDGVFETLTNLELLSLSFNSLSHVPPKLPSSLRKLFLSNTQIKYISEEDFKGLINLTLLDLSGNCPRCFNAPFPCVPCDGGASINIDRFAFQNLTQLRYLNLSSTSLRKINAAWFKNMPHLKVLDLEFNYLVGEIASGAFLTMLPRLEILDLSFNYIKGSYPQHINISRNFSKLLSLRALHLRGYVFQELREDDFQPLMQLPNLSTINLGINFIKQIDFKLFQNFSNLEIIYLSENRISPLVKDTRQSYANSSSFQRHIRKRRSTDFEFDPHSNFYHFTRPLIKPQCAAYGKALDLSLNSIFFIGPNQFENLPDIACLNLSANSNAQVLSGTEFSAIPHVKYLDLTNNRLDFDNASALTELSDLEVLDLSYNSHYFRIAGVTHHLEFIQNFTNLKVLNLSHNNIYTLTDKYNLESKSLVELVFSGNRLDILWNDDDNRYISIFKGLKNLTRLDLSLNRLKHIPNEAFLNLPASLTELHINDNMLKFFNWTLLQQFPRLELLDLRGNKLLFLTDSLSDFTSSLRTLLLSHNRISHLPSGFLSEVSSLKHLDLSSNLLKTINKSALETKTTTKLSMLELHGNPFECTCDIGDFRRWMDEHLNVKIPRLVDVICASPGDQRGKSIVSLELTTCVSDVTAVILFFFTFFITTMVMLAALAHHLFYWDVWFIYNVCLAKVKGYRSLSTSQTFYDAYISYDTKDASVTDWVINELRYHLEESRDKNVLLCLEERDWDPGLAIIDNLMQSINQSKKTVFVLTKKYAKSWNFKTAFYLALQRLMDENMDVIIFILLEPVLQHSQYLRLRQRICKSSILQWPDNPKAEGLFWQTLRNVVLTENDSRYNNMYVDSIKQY
The following applies: cited from earlier work.

In assay [5] the test system is mice. Conditions: ovalbumin as antigen; cited from earlier work.
Assay [6] concerns the target T2, Toll-like 7 receptor (Homo sapiens, UniProt Q9NYK1).
T2 sequence (Q9NYK1 27-1049): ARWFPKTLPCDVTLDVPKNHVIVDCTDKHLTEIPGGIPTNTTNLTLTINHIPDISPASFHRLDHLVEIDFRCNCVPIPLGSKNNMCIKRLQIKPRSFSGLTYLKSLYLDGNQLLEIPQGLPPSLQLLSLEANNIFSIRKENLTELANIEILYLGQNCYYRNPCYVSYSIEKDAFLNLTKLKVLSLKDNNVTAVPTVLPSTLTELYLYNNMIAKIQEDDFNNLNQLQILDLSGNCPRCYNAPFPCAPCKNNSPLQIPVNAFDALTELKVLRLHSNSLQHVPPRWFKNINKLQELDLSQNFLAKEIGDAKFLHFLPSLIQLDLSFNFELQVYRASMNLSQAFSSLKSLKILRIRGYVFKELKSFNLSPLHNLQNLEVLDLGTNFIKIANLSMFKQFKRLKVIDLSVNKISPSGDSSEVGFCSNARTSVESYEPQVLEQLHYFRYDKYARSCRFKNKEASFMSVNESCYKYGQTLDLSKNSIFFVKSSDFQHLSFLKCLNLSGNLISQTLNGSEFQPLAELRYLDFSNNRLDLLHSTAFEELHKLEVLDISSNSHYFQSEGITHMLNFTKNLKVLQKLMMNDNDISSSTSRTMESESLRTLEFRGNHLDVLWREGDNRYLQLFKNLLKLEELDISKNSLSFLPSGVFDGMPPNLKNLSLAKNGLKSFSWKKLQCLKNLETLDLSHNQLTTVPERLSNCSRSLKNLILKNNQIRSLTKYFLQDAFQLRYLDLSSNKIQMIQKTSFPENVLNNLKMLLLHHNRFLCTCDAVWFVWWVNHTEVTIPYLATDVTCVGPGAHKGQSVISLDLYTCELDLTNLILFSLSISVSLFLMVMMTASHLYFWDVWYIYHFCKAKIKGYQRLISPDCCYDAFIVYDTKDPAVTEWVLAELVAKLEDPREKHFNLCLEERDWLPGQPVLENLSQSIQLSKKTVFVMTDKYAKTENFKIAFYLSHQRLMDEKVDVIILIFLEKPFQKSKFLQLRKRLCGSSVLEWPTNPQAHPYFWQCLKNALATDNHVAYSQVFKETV
Conditions: cited from earlier work.

Turning to `CCCCCCCCCCCC(=O)CC(=O)N[C@H](COCC[C@@H](CCCCCCC)OC(=O)CCCCCCCCCCC)COP(=O)(O)OCCNC(=O)NCCOP(=O)(O)OC[C@@H](COCC[C@@H](CCCCCCC)OC(=O)CCCCCCCCCCC)NC(=O)CC(=O)CCCCCCCCCCC` [ER804057, (1R,6R,22R,27R)-1,27-diheptyl-1,27-bisdodecanoyl-9,19-dihydroxy-9,19-dioxido-14-oxo-6,22-bis[(1,3-dioxotetradecyl)amino]-4,8,10,18,20,24-hexaoxa-13,15-diaza-9,19-diphosphoheptacosan], in assay [1], the “Percentage of cells expressing the markers CD25” value is recorded as 35%, the “Percentage of cells expressing the markers CD80” value was 46% and the “Percentage of cells expressing the markers CD83” value was 15%. For the same compound, the “IgG2a response obtained after the injection of the booster, individual mice (FIGS. 1 to 4)” value in assay [2] is given as “on average satisfactory”. Further, in assay [3], the “Quantity of cytokines IL 6” value was 8349 pg/mL, the “Quantity of cytokines IL12p70” value worked out at 22 pg/mL and the “Quantity of cytokines TNF-α” value is 393 pg/mL.
On to `CCOCc1nc2c(N)nc3ccccc3c2n1CC(C)(C)O` [R-848, 4-amino-2-ethoxymethyl-α,α-dimethyl-1-H-imidazo[4,5c]quinoline-1-ethanol], for which the “activation of cells via the Toll-like 8 receptor” value in assay [4] was “activates the cells”. Further, in assay [1], the “Percentage of cells expressing the markers CD25” value is listed as 25%, the “Percentage of cells expressing the markers CD80” value amounted to 34% and the “Percentage of cells expressing the markers CD83” value turned out to be 19%. Further, the adjuvant type result in assay [5] was “adjuvant of the TH1 type”. Also, the “activation of cells via the Toll-like 7 receptor” value in assay [6] was “activates the cells”. In addition, in assay [2], the “IgG2a response obtained after the injection of the booster, individual mice (FIGS. 1 to 4)” value is listed as “on average satisfactory”. For the same compound, in assay [3], the “Quantity of cytokines IL 6” value was 8263 pg/mL, the “Quantity of cytokines IL12p70” value is 288 pg/mL and the “Quantity of cytokines TNF-α” value came out at 1727 pg/mL.

Source of the values: patent publication US20070087009A1, “Immunostimulant composition comprising at least one toll-like receptor 7 or toll-like receptor 8 agonist and a toll-like receptor 4 agonist” (SANOFI PASTEUR, priority 2003, published 2007).
